Test results from patent publication US7923021B2, “Local delivery method and composition” (University of Memphis Research Foundation, priority 2007, dated 2011).
Values after ≈ are worked out from the molar mass of the structure shown.

Key:
[1] = Elution of antibiotic from pellets or flakes into PBS at 37° C., Fluorescence Polarization Immunoassay; format: physicochemical; settings: from rapidly resorbing pellets loaded with 4% antibiotic, FIG. 2
Protocol: Elution was characterized by placing groups of eight pellets or the flakes of eight pellets (n≧3) in 20 ml phosphate buffered saline (PBS) in a 37° C. water bath. At specified times (t=1, 4, 8, 12, 24, 36, 48, 72, 96, 120, 144, 168, 240 hours), aliquots were removed and frozen at -40° C. At each time interval, the pellets were removed and placed in 20 ml fresh PBS. The amount of antibiotic in the eluates was determined (μg/ml) using a Florescence Polarization Immunoassay ([…], Abbott Laboratories, Abbott Park, Ill.). Testing was repeated for three batches of pellets.

[2] = test system: Pseudomonas aeruginosa strain ATCC 27317; assay: Biological activity testing of eluates and antibiotic dilutions, growth in TSB, A530; format: cell-based; settings: P. aeruginosa ATCC 27317, observed
Protocol: Pseudomonas aeruginosa strain ATCC 27317 was used for biological activity testing of AmikacinTM and GentamicinTM eluates. A clinical isolate of Staphylococcus aureus Cowan I strain was used to assess activity of VancomycinTM eluates. The eluate having the lowest concentration for each antibiotic at each of the specified time points was used in the biological activity assay. P. aeruginosa or S. aureus was grown overnight at 37° C. in Trypticase soy broth (TSB). Conical tubes were prepared with 1.75 ml of TSB and 200 μl of antibiotic dilutions (AmikacinTM: 0-640 μg/ml, GentamicinTM: 0-2560 μg/ml, VancomycinTM: 0-160 μg/ml), or 200 μl eluate samples, or 200 μl buffer. All tubes except blanks were inoculated with 50 μl of 1:50 dilution of bacteria. Blanks were supplanted with an additional 50 μl of TSB instead of bacteria. The tubes were vortexed and incubated at 37° C. for 24 hours. A blank was used to adjust the spectrophotometer to zero, and the absorbance at 530 nm ([…]) was recorded. Results were reported as percent growth relative to control, calculated as ([…] sample/[…] control)×100. This method dilutes the sample concentration by a factor of 10. Testing was repeated for three replicates of the samples.

## NCC[C@H](O)C(=O)N[C@@H]1C[C@H](N)[C@@H](O[C@H]2O[C@H](CN)[C@@H](O)[C@H](O)[C@H]2O)[C@H](O)[C@H]1O[C@H]1O[C@H](CO)[C@@H](O)[C@H](N)[C@H]1O [Amikacin™, Amikacin]
[1]
  Elution profile (qualitative): peak at hour one and decrease exponentially
[2]; Pseudomonas aeruginosa, ATCC27317, read-out: minimum inhibitory concentration (MIC)
  MIC: 4 µg/mL (≈ 6.83 µM)

## CN[C@H](CC(C)C)C(=O)N[C@H]1C(=O)N[C@@H](CC(N)=O)C(=O)N[C@H]2C(=O)N[C@H]3C(=O)N[C@H](C(=O)N[C@H](C(=O)O)c4cc(O)cc(O)c4-c4cc3ccc4O)[C@H](O)c3ccc(c(Cl)c3)Oc3cc2cc(c3O[C@@H]2O[C@H](CO)[C@@H](O)[C@H](O)[C@H]2O[C@H]2C[C@](C)(N)[C@H](O)[C@H](C)O2)Oc2ccc(cc2Cl)[C@H]1O [Vancomycin™, Vancomycin]
[1]
  Elution profile (qualitative): burst of antibiotic in hour one

## Gentamicin [Gentamicin™]
[1]
  Elution profile (qualitative): peak at hour one and decrease exponentially
[2]
  minimum inhibitory concentration (MIC): 4.0 µg/mL
